{"source": "ChEMBL document CHEMBL5352388", "about": "(Eur J Med Chem, 2022)", "key": {"[1]": {"tested_on": "HeLa", "test": "Antiproliferative activity against human HeLa cells assessed as inhibition of cell growth incubated for 72 hrs by CCK-8 assay", "type": "functional, cell-based"}, "[2]": {"test": "Intrinsic clearance in human liver measured upto 60 mins in presence of NADPH by LC/MS/MS analysis", "type": "ADME, tissue-based", "settings": "read-out: CLH"}, "[3]": {"biological_target": "T1, Amine oxidase [flavin-containing] B (Homo sapiens, UniProt P27338)", "T1 sequence (P27338 whole entry)": "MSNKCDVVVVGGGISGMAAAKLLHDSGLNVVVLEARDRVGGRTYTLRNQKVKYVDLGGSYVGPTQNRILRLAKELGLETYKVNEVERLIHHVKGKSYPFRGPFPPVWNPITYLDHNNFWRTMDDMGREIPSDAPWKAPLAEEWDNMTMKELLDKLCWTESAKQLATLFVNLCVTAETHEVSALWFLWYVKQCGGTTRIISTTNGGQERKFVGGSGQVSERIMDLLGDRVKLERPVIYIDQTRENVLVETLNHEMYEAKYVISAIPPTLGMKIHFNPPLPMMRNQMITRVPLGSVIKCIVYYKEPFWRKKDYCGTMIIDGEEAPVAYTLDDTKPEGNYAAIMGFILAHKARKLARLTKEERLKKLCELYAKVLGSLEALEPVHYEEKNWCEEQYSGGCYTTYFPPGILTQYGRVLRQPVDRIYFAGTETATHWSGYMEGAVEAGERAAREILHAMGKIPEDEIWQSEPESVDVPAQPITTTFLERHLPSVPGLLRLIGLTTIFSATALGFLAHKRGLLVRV", "description": "Inhibition of recombinant MAO-B (unknown origin) incubated for 60 mins by luminescence based flow cytometry"}, "[4]": {"test": "AUC (0-infinity) in Sprague-Dawley rat at 10 mg/kg,po by LC-MS/MS analysis", "type": "ADME, organism-based", "parameters": "dose 10 mg/kg, route po", "settings": "in vivo"}, "[5]": {"biological_target": "CYP2C19 (Homo sapiens, UniProt P33261)", "sequence (P33261 whole entry)": "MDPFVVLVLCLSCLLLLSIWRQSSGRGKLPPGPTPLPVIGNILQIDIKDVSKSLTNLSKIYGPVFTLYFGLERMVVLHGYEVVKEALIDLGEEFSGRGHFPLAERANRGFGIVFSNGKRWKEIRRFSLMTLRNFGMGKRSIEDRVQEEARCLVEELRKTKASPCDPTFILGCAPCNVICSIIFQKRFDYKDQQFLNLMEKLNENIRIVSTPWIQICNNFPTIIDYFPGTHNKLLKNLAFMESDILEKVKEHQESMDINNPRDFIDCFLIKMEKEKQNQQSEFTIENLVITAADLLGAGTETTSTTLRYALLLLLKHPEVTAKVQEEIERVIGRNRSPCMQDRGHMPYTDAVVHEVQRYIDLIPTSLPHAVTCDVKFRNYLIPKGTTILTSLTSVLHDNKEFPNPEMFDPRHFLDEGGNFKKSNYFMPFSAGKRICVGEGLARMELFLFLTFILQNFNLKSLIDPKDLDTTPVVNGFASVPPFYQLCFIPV", "test": "Inhibition of CYP2C19 (unknown origin) at 10 uM incubated for 20 mins in presence of NADPH by LC/MS/MS analysis relative to control", "type": "ADME"}, "[6]": {"test": "Volume of distribution in steady state in Sprague-Dawley rat at 3 mg/kg,iv by LC-MS/MS analysis", "type": "ADME, organism-based", "settings": "in vivo, read-out: Vdss"}, "[7]": {"biological_target": "T2, Lysine-specific histone demethylase 1A (Homo sapiens, UniProt O60341)", "test": "Binding affinity to LSD1 in human A549 cells assessed as increase in thermal stability at 10 uM incubated for 1 hr by cellular thermal shift assay", "type": "cell-based"}, "[8]": {"biological_target": "CYP2C9 (Homo sapiens, UniProt P11712)", "sequence (P11712 whole entry)": "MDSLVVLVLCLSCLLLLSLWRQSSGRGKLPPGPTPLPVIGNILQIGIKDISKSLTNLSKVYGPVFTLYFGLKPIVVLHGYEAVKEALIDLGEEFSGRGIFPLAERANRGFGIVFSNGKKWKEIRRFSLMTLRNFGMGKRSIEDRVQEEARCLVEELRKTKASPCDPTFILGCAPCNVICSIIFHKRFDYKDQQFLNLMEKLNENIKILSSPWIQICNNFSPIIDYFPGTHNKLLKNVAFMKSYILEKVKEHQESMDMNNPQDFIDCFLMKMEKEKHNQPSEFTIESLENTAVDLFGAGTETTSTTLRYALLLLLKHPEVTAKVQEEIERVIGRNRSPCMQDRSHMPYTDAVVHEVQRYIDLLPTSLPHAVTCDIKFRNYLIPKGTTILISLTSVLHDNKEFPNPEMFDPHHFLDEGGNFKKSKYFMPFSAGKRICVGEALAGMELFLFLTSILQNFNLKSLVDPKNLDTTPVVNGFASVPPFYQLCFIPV", "test": "Inhibition of CYP2C9 (unknown origin) at 10 uM incubated for 20 mins in presence of NADPH by LC/MS/MS analysis relative to control", "type": "ADME"}, "[9]": {"test": "AUC (0-t) in Sprague-Dawley rat at 10 mg/kg,po by LC-MS/MS analysis", "type": "ADME, organism-based", "parameters": "dose 10 mg/kg, route po", "settings": "in vivo"}, "[10]": {"tested_on": "A549", "test": "Antitumor activity against human A549 cells xenografted in BALB/c mouse assessed as decrease in tumor cell density at 20 mg/kg,ip administrated for 15 days", "type": "functional, organism-based", "settings": "time 15.0 day"}, "[11]": {"tested_on": "A549", "test": "Antitumor activity against human A549 cells xenografted in BALB/c mouse assessed as reduction in KI67 positive cells at 20 mg/kg,ip administrated for 15 days", "type": "functional, organism-based", "settings": "time 15.0 day"}, "[12]": {"test": "in vitro", "settings": "human, THLE-2 cells", "description": "Antiproliferative activity against human THLE-2 cells assessed as inhibition of cell growth incubated for 72 hrs by CCK-8 assay"}, "[13]": {"tested_on": "A549", "test": "cells", "settings": "Homo sapiens, A549, 72 h", "description": "Antiproliferative activity against human A549 cells assessed as inhibition of cell growth incubated for 72 hrs by CCK-8 assay"}, "[14]": {"test": "Half life in Sprague-Dawley rat at 3 mg/kg,iv by LC-MS/MS analysis", "type": "ADME, organism-based", "settings": "in vivo"}, "[15]": {"tested_on": "A549", "test": "Induction of apoptosis in human A549 cells assessed as downregulation of mTOR phosphorylation incubated for 72 hrs by Western blotting assay", "type": "functional, cell-based"}, "[16]": {"test": "Cmax in Sprague-Dawley rat at 10 mg/kg,po by LC-MS/MS analysis", "type": "ADME, organism-based", "parameters": "dose 10 mg/kg, route po", "settings": "in vivo"}, "[17]": {"test": "Toxicity in BALB/c mouse xenografted with human A549 cells assessed as change in body weight at 20 mg/kg,ip administrated for 15 days", "type": "organism-based", "settings": "in vivo, 360 h, time 15 day"}, "[18]": {"test": "Half life in Sprague-Dawley rat at 10 mg/kg,po by LC-MS/MS analysis", "type": "ADME, organism-based", "settings": "in vivo"}, "[19]": {"test": "Intrinsic clearance in human liver microsomes measured upto 60 mins in presence of NADPH by LC/MS/MS analysis", "type": "ADME, Microsome", "settings": "read-out: CLH"}, "[20]": {"test": "Oral bioavailability in Sprague-Dawley rat at 10 mg/kg by LC-MS/MS analysis", "type": "ADME, organism-based", "settings": "in vivo"}, "[21]": {"tested_on": "MCF7", "test": "cells", "settings": "Homo sapiens, MCF7, 72 h", "description": "Antiproliferative activity against human MCF7 cells assessed as inhibition of cell growth incubated for 72 hrs by CCK-8 assay"}, "[22]": {"tested_on": "A549", "test": "Antitumor activity against human A549 cells xenografted in BALB/c mouse assessed as chromatin condensation at 10 mg/kg,ip administrated for 15 days", "type": "functional, organism-based", "settings": "time 15.0 day"}, "[23]": {"biological_target": "CYP3A4 (Homo sapiens, UniProt P08684)", "sequence (P08684 whole entry)": "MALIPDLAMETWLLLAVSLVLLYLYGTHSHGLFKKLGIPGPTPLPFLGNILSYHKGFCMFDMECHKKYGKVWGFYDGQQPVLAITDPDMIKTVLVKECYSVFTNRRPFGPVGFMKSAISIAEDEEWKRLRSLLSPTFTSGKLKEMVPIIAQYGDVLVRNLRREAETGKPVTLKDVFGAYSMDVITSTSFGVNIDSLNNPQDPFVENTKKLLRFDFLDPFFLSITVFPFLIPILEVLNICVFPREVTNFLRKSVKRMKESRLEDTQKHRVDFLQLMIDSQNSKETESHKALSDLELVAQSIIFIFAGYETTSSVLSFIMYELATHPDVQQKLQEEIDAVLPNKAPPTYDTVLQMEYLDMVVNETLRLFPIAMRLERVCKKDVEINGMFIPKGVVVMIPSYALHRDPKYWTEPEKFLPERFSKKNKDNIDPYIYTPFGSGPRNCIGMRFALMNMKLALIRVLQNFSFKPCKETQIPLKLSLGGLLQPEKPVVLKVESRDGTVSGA", "test": "Inhibition of CYP3A4 (unknown origin) at 10 uM incubated for 20 mins in presence of NADPH by LC/MS/MS analysis relative to control", "type": "ADME"}, "[24]": {"tested_on": "A549", "test": "Antiproliferative activity against human A549 cells assessed as reduction of Edu positive cells at 2 uM incubated for 48 hrs by EdU incorporation based laser scanning microscopic analysis", "type": "functional, cell-based"}, "[25]": {"biological_target": "T2, Lysine-specific histone demethylase 1A", "test": "Inhibition of LSD1 (unknown origin) assessed as inhibition constant using H3K4me2 as substrate by Lineweaver-Burk plot analysis"}, "[26]": {"biological_target": "T2, Lysine-specific histone demethylase 1A", "test": "Inhibition of LSD1 in human A549 cells assessed as increase in H3K9me1 protein level at 1 to 4 uM incubated for 72 hrs by Western blotting assay", "type": "cell-based", "settings": "dose 1-4 µM"}, "[27]": {"tested_on": "A549", "test": "Antitumor activity against human A549 cells xenografted in BALB/c mouse assessed as reduction in tumor growth at 10 mg/kg,ip administrated for 15 days", "type": "functional, organism-based", "settings": "time 15.0 day"}, "[28]": {"test": "AUC (0-t) in Sprague-Dawley rat at 3 mg/kg,iv by LC-MS/MS analysis", "type": "ADME, organism-based", "parameters": "dose 3 mg/kg, route iv", "settings": "in vivo"}}, "note": "Calls of active or inactive are those of the source. No cut-off for these calls is given here."}
{"smiles": "Cc1ccc(-c2cc3c(cc2-c2ccc(C#N)cc2)c(C(=O)N2CCC(N)CC2)cn3S(=O)(=O)c2ccc(F)cc2)cc1", "values": [{"measurement": "IC50", "setting": "[1]", "result": 3.3, "unit": "µM"}, {"measurement": "CLint scaled", "setting": "[2]", "result": 8.6, "unit": "mL/min/kg"}, {"measurement": "IC50", "setting": "[3]", "result": 720, "unit": "nM"}, {"measurement": "AUC(0-inf)", "setting": "[4]", "result": 362, "unit": "ng·h/mL"}, {"measurement": "inhibition at 20 min, 10 µM", "setting": "[5]", "result": 17.5, "unit": "%"}, {"measurement": "Vd", "setting": "[6]", "result": 17.4, "unit": "L/kg"}, {"measurement": "Activity", "setting": "[7]", "result": "Active"}, {"measurement": "inhibition at 20 min, 10 µM", "setting": "[8]", "result": 47.7, "unit": "%"}, {"measurement": "AUC(0-t)", "setting": "[9]", "result": 329, "unit": "ng·h/mL"}, {"measurement": "Activity", "setting": "[10]", "result": "Active"}, {"measurement": "Activity", "setting": "[11]", "result": "Active"}, {"measurement": "IC50 at 72 h", "setting": "[12]", "result": 3.1, "unit": "µM"}, {"measurement": "IC50", "setting": "[13]", "result": 740, "unit": "nM"}, {"measurement": "half-life", "setting": "[14]", "result": 527, "unit": "min"}, {"measurement": "Activity", "setting": "[15]", "result": "Active"}, {"measurement": "Cmax", "setting": "[16]", "result": 46.5, "unit": "ng/mL"}, {"measurement": "Activity", "setting": "[17]", "result": "Non-Toxic"}, {"measurement": "half-life", "setting": "[18]", "result": 376, "unit": "min"}, {"measurement": "microsomal CLint", "setting": "[19]", "result": 9.6, "unit": "µL/min/mg"}, {"measurement": "bioavailability", "setting": "[20]", "result": 7.49, "unit": "%"}, {"measurement": "IC50", "setting": "[21]", "result": 3.4, "unit": "µM"}, {"measurement": "Activity", "setting": "[22]", "result": "Active"}, {"measurement": "inhibition at 20 min, 10 µM", "setting": "[23]", "result": 56.8, "unit": "%"}, {"measurement": "Activity", "setting": "[24]", "result": "Active"}, {"measurement": "Ki", "setting": "[25]", "result": 155, "unit": "nM"}, {"measurement": "inhibition", "setting": "[26]", "result": "Dose-Dependent Effect"}, {"measurement": "Activity", "setting": "[27]", "result": "Active"}, {"measurement": "AUC(0-t)", "setting": "[28]", "result": 1320, "unit": "ng·h/mL"}]}
